This is an account of results in BindingDB's records for patent US20250074919 (Accro Bioscience (HK), 2025).

This experiment addresses T1, Interleukin-1 receptor-associated kinase 4 (Homo sapiens, UniProt Q9NWZ3).
T1 sequence (Q9NWZ3 whole entry): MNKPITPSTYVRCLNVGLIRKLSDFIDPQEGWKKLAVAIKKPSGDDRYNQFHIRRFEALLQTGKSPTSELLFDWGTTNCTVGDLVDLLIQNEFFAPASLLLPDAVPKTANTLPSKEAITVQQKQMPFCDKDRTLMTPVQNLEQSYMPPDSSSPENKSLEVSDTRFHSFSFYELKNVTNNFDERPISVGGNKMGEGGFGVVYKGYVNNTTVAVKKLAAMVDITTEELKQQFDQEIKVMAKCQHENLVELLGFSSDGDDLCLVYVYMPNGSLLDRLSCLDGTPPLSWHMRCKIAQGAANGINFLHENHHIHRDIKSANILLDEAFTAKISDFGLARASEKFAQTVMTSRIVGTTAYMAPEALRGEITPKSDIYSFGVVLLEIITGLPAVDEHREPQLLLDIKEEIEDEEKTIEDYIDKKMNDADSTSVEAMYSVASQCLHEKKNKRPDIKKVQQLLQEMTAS
As to the kind of experiment: Screening Assay Against IRAK4 with ATP. The procedure: Then prepare compounds for testing: Dilute the compound to 50× of the final desired highest inhibitor concentration in reaction by 100% DMSO. […] Transfer 10 μL of the compound from the source plate to a new 96-well plate (intermediate plate) and add 90 μL of Ix kinase buffer. Shake the mixture on the intermediate plate for 10 min. Transfer 5 μL of each well from the 96-well intermediate plate to a 384-well plate in duplicates. Add 10 μL of 2.5× enzyme solution to each well of the 384-well assay plate and incubate at room temperature for 10 min. Add 10 μL, of 2.5×FAM-labeled peptide and ATP solution and incubate at 28° C. for a period of time.

In turn, `Cn1cc(-c2cccc(NC(=O)c3cc4oc(N5CCOCC5)nc4nc3N3CCOCC3)n2)cn1` [US20250074919, Example A2] had an IC50 of 45 nM.
